# Measurements: ChEMBL document CHEMBL1201862, “PubChem BioAssay data set” (2004)
# Activity calls are given as the source filed them.
# What was measured:
# [1] = target: T1, Corticotropin-releasing factor receptor 2/Corticotropin-releasing factor-binding protein (Homo sapiens, UniProt P24387+Q13324); test: Dose Response confirmation of uHTS hits for small molecule antagonists of the CRF-binding protein and CRF-R2 receptor complex.; assay type: functional; details: read-out: IC50_Mean
# T1 sequence (Q13324 whole entry): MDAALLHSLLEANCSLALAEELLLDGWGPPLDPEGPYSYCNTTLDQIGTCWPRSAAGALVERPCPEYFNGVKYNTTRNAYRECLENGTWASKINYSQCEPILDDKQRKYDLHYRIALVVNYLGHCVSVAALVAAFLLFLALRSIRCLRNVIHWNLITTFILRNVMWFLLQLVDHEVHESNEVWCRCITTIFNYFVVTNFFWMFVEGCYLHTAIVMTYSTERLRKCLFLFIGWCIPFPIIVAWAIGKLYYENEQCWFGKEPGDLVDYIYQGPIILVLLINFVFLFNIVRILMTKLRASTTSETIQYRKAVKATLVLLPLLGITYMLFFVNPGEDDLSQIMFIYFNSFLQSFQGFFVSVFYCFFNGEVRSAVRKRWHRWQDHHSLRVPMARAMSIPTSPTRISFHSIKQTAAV
# T1 sequence (P24387 whole entry): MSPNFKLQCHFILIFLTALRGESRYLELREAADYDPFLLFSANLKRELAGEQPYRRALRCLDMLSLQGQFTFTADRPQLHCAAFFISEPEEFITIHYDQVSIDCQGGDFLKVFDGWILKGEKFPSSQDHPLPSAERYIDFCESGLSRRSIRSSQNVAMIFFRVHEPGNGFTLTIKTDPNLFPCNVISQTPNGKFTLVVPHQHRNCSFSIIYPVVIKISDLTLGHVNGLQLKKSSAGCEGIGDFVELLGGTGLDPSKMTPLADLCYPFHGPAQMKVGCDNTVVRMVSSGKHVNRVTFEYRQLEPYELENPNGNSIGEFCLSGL
# [2] = target: T1, Corticotropin-releasing factor receptor 2/Corticotropin-releasing factor-binding protein; test: activators of CRF receptor 2 with binding protein – uHTS hits, confirmation (AID 602473); assay type: functional; details: read-out: EC50_Mean
# [3] = target: T2, Ubiquitin-conjugating enzyme E2 N (Homo sapiens, UniProt P61088); assay type: functional;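 also: Dose-response confirmation in a TR-FRET assay detecting UBC13-driven polyubiquitin chain formation, inhibition measured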
# T2 sequence (P61088 whole entry): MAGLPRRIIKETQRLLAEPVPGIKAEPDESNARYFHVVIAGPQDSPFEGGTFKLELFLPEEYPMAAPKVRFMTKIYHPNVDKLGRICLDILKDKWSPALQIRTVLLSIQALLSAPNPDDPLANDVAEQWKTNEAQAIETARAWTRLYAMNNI
# cells [4] = assay type: functional, cell-based
# cells [5] = assay type: functional, cell-based; remark: listed apart in the source
# Large T antigen = Large T antigen (Simian virus 40, UniProt P03070); assay type: functional, Betapolyomavirus macacae;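 also: Confirmatory-stage PubChem screen for compounds that inhibit SV40 T antigen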
# Chain of Large T antigen (P03070 whole entry): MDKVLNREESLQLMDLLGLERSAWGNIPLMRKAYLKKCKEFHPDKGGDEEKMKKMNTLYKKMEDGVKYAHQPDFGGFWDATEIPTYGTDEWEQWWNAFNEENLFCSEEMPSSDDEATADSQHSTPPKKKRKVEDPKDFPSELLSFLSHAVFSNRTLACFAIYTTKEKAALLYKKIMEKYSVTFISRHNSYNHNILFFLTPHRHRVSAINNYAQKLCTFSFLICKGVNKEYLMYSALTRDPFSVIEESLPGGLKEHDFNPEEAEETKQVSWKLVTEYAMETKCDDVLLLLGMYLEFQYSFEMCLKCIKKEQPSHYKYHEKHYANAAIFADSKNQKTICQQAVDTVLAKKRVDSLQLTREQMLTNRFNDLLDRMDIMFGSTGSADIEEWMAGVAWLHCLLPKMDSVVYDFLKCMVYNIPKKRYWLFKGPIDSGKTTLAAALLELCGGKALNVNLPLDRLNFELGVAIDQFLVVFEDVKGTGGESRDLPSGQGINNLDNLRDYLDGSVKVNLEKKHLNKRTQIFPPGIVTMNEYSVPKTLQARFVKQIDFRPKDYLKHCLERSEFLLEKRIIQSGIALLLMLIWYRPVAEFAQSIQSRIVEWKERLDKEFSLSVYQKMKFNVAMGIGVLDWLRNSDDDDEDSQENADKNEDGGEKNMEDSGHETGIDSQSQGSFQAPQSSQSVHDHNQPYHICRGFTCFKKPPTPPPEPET
# [6] = target: T3, Calpain-2 catalytic subunit (Sus scrofa, UniProt P43367); test: pig calpain II inhibitor potency, dose response, biochemical, fluorogenic peptide substrate (AID 1420); assay type: functional
# T3 sequence (P43367 whole entry): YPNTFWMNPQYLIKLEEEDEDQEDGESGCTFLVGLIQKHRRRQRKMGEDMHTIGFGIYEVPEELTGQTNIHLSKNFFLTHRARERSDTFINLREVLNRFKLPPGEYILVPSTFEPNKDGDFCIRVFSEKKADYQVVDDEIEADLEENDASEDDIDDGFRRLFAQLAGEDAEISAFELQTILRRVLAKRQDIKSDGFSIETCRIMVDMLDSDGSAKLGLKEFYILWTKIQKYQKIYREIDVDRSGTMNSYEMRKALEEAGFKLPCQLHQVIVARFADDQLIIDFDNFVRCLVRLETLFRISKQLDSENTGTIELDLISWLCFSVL
# BJ [7] = test: cytotoxicity toward BJ-TERT fibroblasts, dose response, cell-based, RAS-independent, luminescence (AID 1933); assay type: functional; details: Homo sapiens
# BJ [8] = test: cells; assay type: functional, cell-based; details: Homo sapiens
# [9] = microbe, parasite or virus in culture; assay type: functional; details: Mycobacterium tuberculosis
# BJ [10] = test: cytotoxicity toward BJ-TERT-LT-ST fibroblasts, dose response, cell-based, RAS-independent, luminescence (AID 1935); assay type: functional; details: Homo sapiens;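 also: BJ fibroblasts immortalized with TERT plus LT and ST oncogenes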
# [11] = cytotoxicity toward DRD oncogenic fibroblasts, dose response, cell-based, non-viral oncogenic, luminescence (AID 1934); assay type: functional; details: Homo sapiens
# Leucine aminopeptidase = target: T4, Leucine aminopeptidase (Plasmodium falciparum 3D7, UniProt Q8IL11); test: P. falciparum M17LAP inhibitors, primary screen, biochemical, fluorogenic H-Leu-NHMec substrate, 1536-well (AID 1619); assay type: functional
# T4 sequence (Q8IL11 whole entry): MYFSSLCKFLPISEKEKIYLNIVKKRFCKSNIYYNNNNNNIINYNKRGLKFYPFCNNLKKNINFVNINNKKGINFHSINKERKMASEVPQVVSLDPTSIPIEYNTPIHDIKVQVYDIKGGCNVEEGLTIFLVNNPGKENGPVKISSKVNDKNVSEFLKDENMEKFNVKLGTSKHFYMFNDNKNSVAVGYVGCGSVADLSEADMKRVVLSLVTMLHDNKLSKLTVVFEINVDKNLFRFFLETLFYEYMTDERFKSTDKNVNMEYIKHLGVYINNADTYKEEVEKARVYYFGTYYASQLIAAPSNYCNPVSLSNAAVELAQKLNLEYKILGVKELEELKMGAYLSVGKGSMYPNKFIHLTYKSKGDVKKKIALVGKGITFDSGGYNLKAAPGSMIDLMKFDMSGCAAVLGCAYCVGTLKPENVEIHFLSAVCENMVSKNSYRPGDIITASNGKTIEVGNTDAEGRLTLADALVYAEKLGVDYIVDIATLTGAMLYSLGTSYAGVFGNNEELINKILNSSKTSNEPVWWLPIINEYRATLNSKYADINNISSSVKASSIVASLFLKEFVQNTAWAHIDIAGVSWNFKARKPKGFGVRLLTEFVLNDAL
structure (smiles),measurement,setting,value
O=C(O)c1cccc2c1C(=O)N(Cc1ccccc1)C2,IC50,[1],> 47.1 µM (inactive)
same,EC50,[2],> 53 µM (inactive)
CCn1c(O)c(N=NC(S)=NCC2CCCO2)c2ccccc21 (stereo not drawn),IC50,[3],> 20 µM (inactive)
CCc1ccc(N(C(=O)c2snc(C(N)=O)c2N)C(C(=O)NC2CCCC2)c2ccco2)cc1 (stereo not drawn),IC50,[3],> 20 µM (inactive)
Cc1ccc(C)c(OCC(=O)O/N=C(\N)c2cccc([N+](=O)[O-])c2)c1,EC50,cells [4],> 350 µM (not active)
same,EC50,cells [5],> 350 µM (not active)
CC(=O)Nc1ccc(OC(=O)C(CCS(C)(=O)=O)N2C(=O)c3ccccc3C2=O)cc1 (stereo not drawn),IC50,Large T antigen,8.46 µM (active)
NC(=O)COc1ncn(-c2ccccc2)n1,IC50,[1],> 47.1 µM (inactive)
same,EC50,[2],> 53 µM (inactive)
O=C(OCC(=O)N1CCN(c2ccccc2)CC1)c1ccccn1,IC50,[1],> 47.1 µM (inactive)
same,EC50,[2],> 53 µM (inactive)
CCOC(=O)C1CCCN(c2c(NCCCN(C)c3ccccc3)c(=O)c2=O)C1 (stereo not drawn),IC50,[6],> 50 µM (not active)
CSc1ncccc1C(=O)N(C)CC(=O)Nc1cccc(F)c1,IC50,[1],> 47.1 µM (inactive)
same,EC50,[2],> 53 µM (inactive)
O=C(CCCN1C(=O)c2ccccc2C1=O)N1CCC(c2ccccc2)C1 (stereo not drawn),IC50,[6],25.1 µM (not active)
Cc1ccc(-c2noc(CSc3nnc(Cc4ccccc4)n3-c3cccc(C)c3)n2)cc1,IC50,[6],5.35 µM (not active)
COc1ccc(CN2CCS(=O)(=O)CC2)cc1OC,IC50,[1],> 47.1 µM (inactive)
same,EC50,[2],> 53 µM (inactive)
CCCOc1ccc(OCCN2CCCC(C)C2)cc1 (stereo not drawn),IC50,[6],< 0.4 µM (not active)
Cc1ccc2nc(Cl)c(/C=N/Nc3ccc(C(=O)O)cc3)cc2c1,IC50,[6],4.02 µM (not active)
Cc1cc(NC(=O)CCl)no1,EC50,BJ [7],18 µM (active)
same,EC50,BJ [8],> 150 µM (not active)
same,CC50,[9],19.6 µM (active)
same,EC50,BJ [10],> 75 µM (not active)
same,EC50,[11],21.1 µM (active)
Cc1ccc(C2CC(c3cccs3)=NN2C(=O)c2ccco2)o1 (stereo not drawn),IC50,[6],> 50 µM (not active)
COc1ccc(NC(=O)CSc2[nH]c(=O)cc(C)c2C#N)cc1OC,IC50,Leucine aminopeptidase,16.2 µM (active)
CCCC[C@@H](CNC)NC[C@H](NCCCCC1CCCCC1)C(C)C,IC50,[3],> 20 µM (inactive)
